Key:
COX-2 = details: read-out: COX-2 inhibition IC50; cited from earlier work
[1] = test system: carbonic anhydrase (CA) enzyme family; details: cited from earlier work
HCA-7 tumors [2] = experiment: Biodistribution in HCA-7 tumor-bearing mice; details: 60 min p.i.; for Blocking of [^18F]Pyricoxib tumor uptake (biodistribution studies): celecoxib 100 mg/kg (2 mg per mouse) i.p., HCA-7 tumor; for Biodistribution: Tumor/blood / Biodistribution: Tumor/muscle: ratio, n = 4
Description: Animals were sacrificed at 60 min p.i. The organs and tissues of interest were rapidly excised, weighed, and the radioactivity was determined using the automatic gamma counter (see above). Radioactivity in the selected tissues and organs was calculated as percent injected dose per gram tissue (%ID/g). Data were analyzed as means ± standard deviation (mean ± SD) for n = 4 animals.

HCT-116 tumors = experiment: PET imaging of HCT-116 tumor-bearing mice; assay type: in vivo, NIH-III nude mice; details: 2 h p.i., n = 3
Description: Positron emission tomography (PET) and biodistribution experiments were carried out in HCA-7 and HCT-116 tumor-bearing NIH-III nude mice (Charles River Laboratories, Quebec, Canada). Female NIH-III nude mice were housed under standard conditions with free access to standard food and tap water. HCA-7 and HCT-116 cells (5 × 10^6 cells in 100 μL of PBS) were injected into the upper left flank of female NIH-III nude mice (20–24 g). After 14 to 21 days post-inoculation, HCA-7 and HCT-116 tumors reached sizes of approximately 0.6–0.9 cm^3 (0.78 ± 0.15 g, as determined during biodistribution experiments) which were suitable for all in vivo experiments.
General anesthesia of HCA-7 tumor-bearing mice was induced with inhalation of isoflurane in 40 % oxygen/60 % nitrogen (gas flow = 1 mL/min), and mice were subsequently fixed in prone position. The body temperature was kept constant at 37 °C for the entire experiment. […] PET data was collected dynamically over 60 min for up to 4 h using an Inveon® PET/CT scanner (Siemens Preclinical Solutions, Knoxville, TN, USA). […] Mean standardized uptake values [SUVmean = (activity/mL tissue)/(injected activity/body weight), mL/g] were calculated for each region of interest (ROI) with a threshold defined at 50 % of radioactivity uptake. […] All semi-quantified PET data are presented as means ± SEM.

HCA-7 tumors [3] = experiment: Dynamic PET imaging of HCA-7 tumor-bearing mice
Description: Female NIH-III nude mice were housed under standard conditions with free access to standard food and tap water. HCA-7 and HCT-116 cells (5 × 10^6 cells in 100 μL of PBS) were injected into the upper left flank of female NIH-III nude mice (20–24 g). After 14 to 21 days post-inoculation, HCA-7 and HCT-116 tumors reached sizes of approximately 0.6–0.9 cm^3 (0.78 ± 0.15 g, as determined during biodistribution experiments) which were suitable for all in vivo experiments.
General anesthesia of HCA-7 tumor-bearing mice was induced with inhalation of isoflurane in 40 % oxygen/60 % nitrogen (gas flow = 1 mL/min), and mice were subsequently fixed in prone position. The body temperature was kept constant at 37 °C for the entire experiment. […] PET data was collected dynamically over 60 min for up to 4 h using an Inveon® PET/CT scanner (Siemens Preclinical Solutions, Knoxville, TN, USA). For the initial 4-h dynamic PET experiments, 3.5 % HSA was added to the final injection solution, while all other experiments were done without addition of carrier protein HSA. Mean standardized uptake values [SUVmean = (activity/mL tissue)/(injected activity/body weight), mL/g] were calculated for each region of interest (ROI) with a threshold defined at 50 % of radioactivity uptake. The time-activity curves (TACs) were generated from dynamic PET scans. All semi-quantified PET data are presented as means ± SEM.
A transmission scan for attenuation correction was not acquired. The radioactivity of the injection solution in a 0.5 mL syringe was determined with a dose calibrator (Atomlab^TM 300, Biodex Medical Systems, New York, U.S.A.). After the PET emission scan was started the radioactivity was injected with a delay of approximately 15 s. Data acquisition continued for 60 min in 3D list mode. The dynamic list mode data were sorted into sinograms with up to 54 time frames (10x2, 8x5, 6x10, 6x20, 8x60, 10x120, 6x300 s). The frames were reconstructed using maximum a posteriori (MAP) reconstruction modes. The pixel size was 0.085x0.085x0.12 cm, and the resolution in the center field of view was 1.8 mm. Correction for partial volume effects was not performed. The image files were further processed using the ROVER v2.0.51 software (ABX GmbH, Radeberg, Germany). Masks defining 3D regions of interest (ROI) were set and the ROIs were defined by thresholding.
ROIs covered all visible tumor mass of the subcutaneous tumors, and the thresholds were defined by 50% of the maximum radioactivity uptake level for HCA-7 tumor in each animal.

Lipophilicity = assay type: physicochemical
[4] = Radiometabolite analysis and blood compartment distribution; assay type: in vivo, NIH-III nude mice
Description: Blood samples from the tail vein (20–40 μL) were collected at 5, 30, 60, and 120 min p.i. Plasma was separated by centrifugation (5 min, 13,000×g) followed by plasma protein precipitation using ice-cold methanol (two parts per one part plasma) and centrifugation (5 min, 13,000×g). Supernatants were analyzed by radio thin-layer chromatography (radio-TLC). TLCs were developed in 1 % MeOH/CH2Cl2 and analyzed using a BAS-5000 reader.

[5] = + 2 mg celecoxib i.p. 60 min prior

Description for HCA-7 cells: Blocking experiments were performed at 60 min. Radiotracer uptake was stopped by the addition of 1 mL of ice-cold PBS. Then, cells were washed two times with PBS and lysed in 0.4 mL of radioimmunoprecipitation assay buffer (RIPA buffer). Radioactivity of cell lysates was determined with a WIZARD2 Automatic gamma counter (Perkin Elmer; Waltham, MA, USA). Total protein concentration in the samples was determined by the bicinchoninic acid method (BCA; Pierce, Thermo Scientific 23227) using bovine serum albumin (800, 600, 400, 300, 200, 100, 50 μg/mL, blank) as protein standard. Cell uptake data are expressed as percent of measured radioactivity per 1 mg protein (%radioactivity/mg protein).

CS(=O)(=O)c1ccc(C2=C(c3ccccc3)C(=O)OC2)cc1 [rofecoxib, 4-(4′-methylsulfonylphenyl)-3-phenyl-2-(5H)-furanone]
IC50 (COX-2): 18 to 26 nM | Blocking of [^18F]Pyricoxib uptake (HCA-7 cells): blocked uptake of [^18F]Pyricoxib in HCA-7 cells in a concentration-dependent manner

Cc1ccc(-c2cc(C(F)(F)F)nn2-c2ccc(S(N)(=O)=O)cc2)cc1 [celecoxib, reference compound]
Affinity for carbonic anhydrase [1]: low nanomolar affinity | Blocking of [^18F]Pyricoxib tumor uptake (biodistribution studies) (HCA-7 tumors [2]): 50% | Blocking of [^18F]Pyricoxib tumor uptake (biodistribution studies) (HCA-7 tumors [2]; listed as Celecoxib): 51%

CS(=O)(=O)c1ccc(-c2cc(C(F)(F)F)nc(NCc3ccc([18F])cc3)n2)cc1 [[^18F]Pyricoxib, N-(4-[^18F]fluorobenzyl)-4-[4-(methylsulfonyl)phenyl]-6-(trifluoro-methyl)pyrimidin-2-amine]
Biodistribution: Blood (HCA-7 tumors [2]; control, n = 4, mean ± SD): 0.65 ± 0.12 %ID/g | Biodistribution: Bone (HCA-7 tumors [2]; control, n = 4, mean ± SD): 0.67 ± 0.19 %ID/g | Biodistribution: Brain (HCA-7 tumors [2]; control, n = 4, mean ± SD): 1.74 ± 0.51 %ID/g | Biodistribution: Duodenum (HCA-7 tumors [2]; control, n = 4, mean ± SD): 4.59 ± 0.73 %ID/g | Biodistribution: Fat (HCA-7 tumors [2]; control, n = 4, mean ± SD): 12.67 ± 5.45 %ID/g | Biodistribution: HCA-7 tumor (HCA-7 tumors [2]; control, n = 4, mean ± SD): 2.12 ± 0.53 %ID/g | Biodistribution: Heart (HCA-7 tumors [2]; control, n = 4, mean ± SD): 2.52 ± 0.54 %ID/g | Biodistribution: Intestine (large) (HCA-7 tumors [2]; control, n = 4, mean ± SD): 4.21 ± 1.74 %ID/g | Biodistribution: Intestine (small) (HCA-7 tumors [2]; control, n = 4, mean ± SD): 8.08 ± 2.33 %ID/g | Biodistribution: Kidneys (HCA-7 tumors [2]; control, n = 4, mean ± SD): 4.38 ± 1.01 %ID/g | Biodistribution: Liver (HCA-7 tumors [2]; control, n = 4, mean ± SD): 17.13 ± 1.22 %ID/g | Biodistribution: Lung (HCA-7 tumors [2]; control, n = 4, mean ± SD): 3.75 ± 0.66 %ID/g | Biodistribution: Muscle (HCA-7 tumors [2]; control, n = 4, mean ± SD): 1.42 ± 0.54 %ID/g | Biodistribution: Ovaries (HCA-7 tumors [2]; control, n = 4, mean ± SD): 8.22 ± 1.27 %ID/g | Biodistribution: Pancreas (HCA-7 tumors [2]; control, n = 4, mean ± SD): 3.92 ± 1.39 %ID/g | Biodistribution: Spleen (HCA-7 tumors [2]; control, n = 4, mean ± SD): 1.24 ± 0.33 %ID/g | Biodistribution: Stomach (HCA-7 tumors [2]; control, n = 4, mean ± SD): 1.08 ± 0.29 %ID/g | Biodistribution: Tumor/blood (HCA-7 tumors [2]; [5]): 1.09 ± 0.41 | Biodistribution: Tumor/muscle (HCA-7 tumors [2]; [5]): 0.70 ± 0.19 | Biodistribution: Tumor/blood (HCA-7 tumors [2]; control): 3.39 ± 0.55 | Biodistribution: Tumor/muscle (HCA-7 tumors [2]; control): 1.81 ± 1.04 | SUV2h tumor (HCT-116 tumors): 0.93 ± 0.06 | Mean SUV HCA-7 tumor (HCA-7 tumors [3]; 60 min p.i., control animals, no HSA, n = 6): 0.75 ± 0.12 | SUV HCA-7 tumor (HCA-7 tumors [3]; 60 min p.i., pre-treated with celecoxib 2 mg i.p. 60 min prior, n = 6): 0.57 ± 0.20 | SUV2h tumor (HCA-7 tumors [3]; HCA-7 tumor, 2 h p.i., n = 3): 1.09 ± 0.13 | SUV4h tumor (HCA-7 tumors [3]; HCA-7 tumor, 4 h p.i., […] HSA added, n = 7): 1.19 ± 0.13 | SUV muscle (HCA-7 tumors [3]; muscle as reference tissue, 60 min p.i., no HSA, n = 6): 0.50 ± 0.11 | SUV60min muscle (HCA-7 tumors [3]; muscle, 60 min p.i., […] HSA added): 0.61 ± 0.14 | SUV4h muscle (HCA-7 tumors [3]; muscle, 4 h p.i., […] HSA added, n = 7): 0.53 ± 0.11 | logP (Lipophilicity): 3.37 | Blood compartment distribution: blood cells ([4]; 5 min): 68% | Blood compartment distribution: plasma proteins ([4]; 5 min): 2% | Blood compartment distribution: plasma supernatant ([4]; 5 min): 30% | Detectable radioactivity in plasma fraction ([4]; 5 min p.i.): 30% | Blood compartment distribution: blood cells ([4]; 30 min): 54% | Blood compartment distribution: plasma proteins ([4]; 30 min): 4% | Blood compartment distribution: plasma supernatant ([4]; 30 min): 42% | Blood compartment distribution: blood cells ([4]; 60 min): 43% | Blood compartment distribution: plasma proteins ([4]; 60 min): 7% | Blood compartment distribution: plasma supernatant ([4]; 60 min): 50% | Detectable radioactivity in plasma fraction ([4]; 2 h p.i.): 50% | Percentage of intact [^18F]Pyricoxib ([4]; blood, 5 min p.i., mice): 98%
